Data reported in US11578073B2, “Xanthine analogs as potent anti-West Nile viral agents” (Southern Research Institute, priority 2019, dated 2023).

Legend:
West Nile virus = assay: anti-West Nile virus activity of xanthine analogs in HEK293 cells; format: cell-based; details: HEK293, read-out: EC90 (effective concentration to inhibit 90% of virus)
[1] = cell viability assay (cytotoxicity) in HEK293 cells; format: cell-based; details: human, read-out: CC50 (50% cytotoxicity concentration)

Row | Compound | EC90 (West Nile virus) [µM] | CC50 [1] [µM]
1 | Cn1c(=O)[nH]c(=O)c2c1nc(N1CCN(Cc3ccc(C(F)(F)F)cc3)CC1)n2Cc1ccccc1F [Compound 34, 7-(2-Fluorobenzyl)-3-methyl-8-(4-(4-(trifluoromethyl)benzyl)piperazin-1-yl)-3,7-dihydro-1H-purine-2,6-dione] | 9.4 | > 30
2 | Cn1c(=O)[nH]c(=O)c2c1nc(N1CCN(Cc3ccc(C(C)(C)C)cc3)C(C(=O)O)C1)n2Cc1ccccc1F (stereo not drawn) [Compound 37, 1-(4-(tert-butyl)benzyl)-4-(7-(2-fluorobenzyl)-3-methyl-2,6-dioxo-2,3,6,7-tetrahydro-1H-purin-8-yl)piperazine-2-carboxylic Acid] | > 10 | > 40
3 | Cc1ccc(C)c(CN2CCN(c3nc4c([nH]3)c(=O)n(Cc3ccccc3F)c(=O)n4C)CC2)c1 [Compound 3, 8-(4-(2,5-dimethylbenzyl)piperazin-1-yl)-1-(2-fluorobenzyl)-3-methyl-3,7-dihydro-1H-purine-2,6-dione] | > 10 | > 40
4 | Cn1c(=O)[nH]c(=O)c2c1nc(N1CCN(Cc3ccc(C(C)(C)C)cc3)CC1)n2Cc1ccccc1C(F)(F)F [Compound 16, 8-(4-(4-(tert-Butyl)benzyl)piperazin-1-yl)-3-methyl-7-(2-(trifluoromethyl)benzyl)-3,7-dihydro-1H-purine-2,6-dione] | 1.2 | 12.4
5 | Cn1c(=O)n(CCO)c(=O)c2c1nc(N1CCN(Cc3ccc(C(C)(C)C)cc3)CC1)n2Cc1ccccc1F [Compound 6, 8-(4-(4-(tert-butyl)benzyl)piperazin-1-yl)-7-(2-fluorobenzyl)-1-(2-hydroxyethyl)-3-methyl-3,7-dihydro-1H-purine-2,6-dione] | 6 | 12
6 | CC(C)c1ccc(CN2CCN(c3nc4c(c(=O)[nH]c(=O)n4C)n3Cc3ccccc3F)CC2)cc1 [Compound 41, 7-(2-Fluorobenzyl)-8-(4-(4-isopropylbenzyl)piperazin-1-yl)-3-methyl-3,7-dihydro-1H-purine-2,6-dione] | 1.1 | 24
7 | Cc1ccc(C)c(CN2CCN(c3nc4c(c(=O)[nH]c(=O)n4C)n3Cc3ccccc3C#N)CC2)c1 [Compound 11, 2-((8-(4-(2,5-Dimethylbenzyl)piperazin-1-yl)-3-methyl-2,6-dioxo-1,2,3,6-tetrahydro-7H-purin-7-yl)methyl)benzonitrile] | 6.9 | > 30
8 | Cn1c(=O)n(O)c(=O)c2c1nc(N1CCN(Cc3ccc(C(C)(C)C)cc3)CC1)n2Cc1ccccc1F [Compound 4, 8-(4-(4-(tert-butyl)benzyl)piperazin-1-yl)-7-(2-fluorobenzyl)-1-hydroxy-3-methyl-3,7-dihydro-1H-purine-2,6-dione] | > 30 | > 40
9 | CCn1c(N2CCN(Cc3cc(C)ccc3C)CC2)nc2c1c(=O)[nH]c(=O)n2C [Compound 8, 8-(4-(2,5-Dimethylbenzyl)piperazin-1-yl)-7-ethyl-3-methyl-3,7-dihydro-1H-purine-2,6-dione] | > 10 | > 40
10 | Cn1c(=O)[nH]c(=O)c2c1nc(N1CCC(c3ccccc3)CC1)n2Cc1ccccc1F [Compound 56, 7-(2-Fluorobenzyl)-3-methyl-8-(4-phenylpiperidin-1-yl)-3,7-dihydro-1H-purine-2,6-dione] | 2.4 | 10.7
11 | Cc1ccc(C)c(CN2CCN(c3nc4c(c(=O)[nH]c(=O)n4C)n3Cc3ccc(F)cc3F)CC2)c1 [Compound 15, 7-(2,4-Difluorobenzyl)-8-(4-(2,5-dimethylbenzyl)piperazin-1-yl)-3-methyl-3,7-dihydro-1H-purine-2,6-dione] | > 10 | > 40
12 | Cc1ccc(C)c(CN2CCN(c3nc4c(c(=O)[nH]c(=O)n4C)n3Cc3ccccc3F)CC2)c1 [Compound 1, 8-(4-(2,5-dimethylbenzyl)piperazin-1-yl)-7-(2-fluorobenzyl)-3-methyl-3,7-dihydro-1H-purine-2,6-dione] | 1.2 | 12
13 | Cn1c(=O)[nH]c(=O)c2c1nc(N1CCN(C(=O)c3ccc(C(C)(C)C)cc3)CC1)n2Cc1ccccc1F [Compound 44, 8-(4-(4-(tert-Butyl)benzoyl)piperazin-1-yl)-7-(2-fluorobenzyl)-3-methyl-3,7-dihydro-1H-purine-2,6-dione] | 8.8 | > 30
14 | Cc1ccc(C)c(N2CCN(c3nc4c(c(=O)[nH]c(=O)n4C)n3Cc3ccccc3F)CC2)c1 [Compound 26, 8-(4-(2,5-Dimethylphenyl)piperazin-1-yl)-7-(2-fluorobenzyl)-3-methyl-3,7-dihydro-1H-purine-2,6-dione] | 4.5 | 2.8
15 | Cc1ccc(C)c(CN2CCN(c3nc4c(c(=O)[nH]c(=O)n4C)n3Cc3ccc(F)cc3)CC2)c1 [Compound 14, 8-(4-(2,5-Dimethylbenzyl)piperazin-1-yl)-7-(4-fluorobenzyl)-3-methyl-3,7-dihydro-1H-purine-2,6-dione] | 6.1 | > 30
16 | Cn1c(=O)[nH]c(=O)c2c1nc(N1CCN(Cc3ccc(C(C)(C)C)cc3)CC1)n2Cc1ccccc1OC(F)(F)F [Compound 17, 8-(4-(4-(tert-Butyl)benzyl)piperazin-1-yl)-3-methyl-7-(2-(trifluoromethoxy)benzyl)-3,7-dihydro-1H-purine-2,6-dione] | 1.2 | 10.2
17 | Cc1ccc(C)c(CN2CCN(c3nc4c(c(=O)[nH]c(=O)n4C)n3Cc3cccc(F)c3)CC2)c1 [Compound 13, 8-(4-(2,5-Dimethylbenzyl)piperazin-1-yl)-7-(3-fluorobenzyl)-3-methyl-3,7-dihydro-1H-purine-2,6-dione] | 5.7 | > 30
18 | COC(=O)c1ccc(Cn2c(N3CCN(Cc4ccc(C(C)(C)C)cc4)CC3)nc3c2c(=O)[nH]c(=O)n3C)c(F)c1 [Compound 18, methyl 4-((8-(4-(4-(tert-butyl)benzyl)piperazin-1-yl)-3-methyl-2,6-dioxo-1,2,3,6-tetrahydro-7H-purin-7-yl)methyl)-3-fluorobenzoate] | 5.2 | 21.4
19 | Cn1c(=O)[nH]c(=O)c2c1nc(N1CCN(c3ccc(C(F)(F)F)cc3)CC1)n2Cc1ccccc1F [Compound 30, 7-(2-Fluorobenzyl)-3-methyl-8-(4-(4-(trifluoromethyl)phenyl)piperazin-1-yl)-3,7-dihydro-1H-purine-2,6-dione] | 6.5 | 12.9
20 | Cn1c(=O)[nH]c(=O)c2c1nc(N1CCN(Cc3ccc(C(C)(C)C#N)cc3)CC1)n2Cc1ccccc1F [Compound 39, 2-(4-((4-(7-(2-Fluorobenzyl)-3-methyl-2,6-dioxo-2,3,6,7-tetrahydro-1H-purin-8-yl)piperazin-1-yl)methyl)phenyl)-2-methylpropanenitrile] | > 30 | > 40
21 | Cn1c(=O)[nH]c(=O)c2c1nc(N1CCN(C(=O)Cc3ccc(C(C)(C)C)cc3)CC1)n2Cc1ccccc1F [Compound 50, 8-(4-(2-(4-(tert-Butyl)phenyl)acetyl)piperazin-1-yl)-7-(2-fluorobenzyl)-3-methyl-3,7-dihydro-1H-purine-2,6-dione] | 3.7 | > 30
22 | Cn1c(=O)[nH]c(=O)c2c1nc(N1CCC(c3cccc(F)c3)CC1)n2Cc1ccccc1F [Compound 57, 7-(2-Fluorobenzyl)-8-(4-(3-fluorophenyl)piperidin-1-yl)-3-methyl-3,7-dihydro-1H-purine-2,6-dione] | 4.4 | > 30
23 | Cc1ccc(C)c(CN2CCN(c3nc4c(c(=O)[nH]c(=O)n4C)n3CC3CCCCC3)CC2)c1 [Compound 9, 7-(Cyclohexylmethyl)-8-(4-(2,5-dimethylbenzyl)piperazin-1-yl)-3-methyl-3,7-dihydro-1H-purine-2,6-dione] | 4.4 | > 40
24 | Cc1ccc(C)c(C(=O)N2CCN(c3nc4c(c(=O)[nH]c(=O)n4C)n3Cc3ccccc3F)CC2)c1 [Compound 43, 8-(4-(2,5-Dimethylbenzoyl)piperazin-1-yl)-7-(2-fluorobenzyl)-3-methyl-3,7-dihydro-1H-purine-2,6-dione] | > 10 | > 40
25 | Cn1c(=O)[nH]c(=O)c2c1nc(N1CCN(Cc3ccc(C(C)(C)C)cc3)CC1)n2Cc1ccc(C(=O)O)cc1F [Compound 19, 4-((8-(4-(4-(tert-butyl)benzyl)piperazin-1-yl)-3-methyl-2,6-dioxo-1,2,3,6-tetrahydro-7H-purin-7-yl)methyl)-3-fluorobenzoic Acid] | > 10 | > 40
26 | Cn1c(=O)[nH]c(=O)c2c1nc(N1CCN(Cc3ccc(C(C)(C)C)cc3)CC1)n2Cc1ccccc1F [Compound 36, 8-(4-(4-(tert-butyl)benzyl)piperazin-1-yl)-7-(2-fluorobenzyl)-3-methyl-3,7-dihydro-1H-purine-2,6-dione] | 0.87 | > 30
27 | Cc1ccc(C)c(CN2CCN(c3nc4c(c(=O)[nH]c(=O)n4C)n3Cc3ccccc3C(F)(F)F)CC2)c1 [Compound 12, 8-(4-(2,5-Dimethylbenzyl)piperazin-1-yl)-3-methyl-7-(2-(trifluoromethyl)benzyl)-3,7-dihydro-1H-purine-2,6-dione] | 1.1 | 12
28 | Cn1c(=O)[nH]c(=O)c2c1nc(N1CCC(C)(C)CC1)n2Cc1ccccc1F [Compound 52, 8-(4,4-Dimethylpiperidin-1-yl)-7-(2-fluorobenzyl)-3-methyl-3,7-dihydro-1H-purine-2,6-dione] | 3.9 | > 30
29 | Cn1c(=O)[nH]c(=O)c2c1nc(N1CCN(c3cccc(C(C)(C)C)c3)CC1)n2Cc1ccccc1F [Compound 28, 8-(4-(3-(tert-butyl)phenyl)piperazin-1-yl)-7-(2-fluorobenzyl)-3-methyl-3,7-dihydro-1H-purine-2,6-dione] | 10 | > 40
30 | Cn1c(=O)[nH]c(=O)c2c1nc(N1CCOCC1)n2Cc1ccccc1F [Compound 22, 7-(2-Fluorobenzyl)-3-methyl-8-morpholino-3,7-dihydro-1H-purine-2,6-dione] | > 10 | > 40
